Measured values from ChEMBL document CHEMBL1133113, “Fast calculation of molecular polar surface area as a sum of fragment-based contributions and its application to the prediction of drug transport properties” (J Med Chem, 2000).

experiment: Percent of drug absorbed by human intestine after oral administration; type: ADME, organism-based; details: in vivo

Structure (SMILES) | Fa [%]
C=CCc1ccccc1OCC(O)CNC(C)C (centres undefined) [ALPRENOLOL] | 96
Cc1cc(=O)n(-c2ccccc2)n1C [ANTIPYRINE] | 97
O=C(O)P(=O)(O)O [FOSCARNET] | 17
OC[C@H]1O[C@@H](O[C@@H]2[C@@H](CO)O[C@](O)(CO)[C@H]2O)[C@H](O)[C@@H](O)[C@H]1O [LACTULOSE] | 0.6
OC[C@@H](O)[C@@H](O)[C@H](O)[C@H](O)CO [MANNITOL] | 26
Cc1ccccc1N1C(=O)c2cc(S(N)(=O)=O)c(Cl)cc2NC1C (centres undefined) [METOLAZONE] | 64
O=C(O)c1cc(/N=N/c2ccc(O)c(C(=O)O)c2)ccc1O [OLSALAZINE] | 2.3
C=CCOc1ccccc1OCC(O)CNC(C)C (centres undefined) [OXPRENOLOL] | 97
CC(C)NCC(O)COc1cccc2[nH]ccc12 (centres undefined) [PINDOLOL] | 92
CC(=O)Nc1ccc(OCC(O)CNC(C)C)cc1 (centres undefined) [PRACTOLOL] | 95
OC[C@H]1O[C@H](OC[C@H]2O[C@H](O[C@]3(CO)O[C@H](CO)[C@@H](O)[C@@H]3O)[C@H](O)[C@@H](O)[C@@H]2O)[C@H](O)[C@@H](O)[C@H]1O [RAFFINOSE] | 0.3
O=C(O)c1cc(/N=N/c2ccc(S(=O)(=O)Nc3ccccn3)cc2)ccc1O [SULFASALAZINE] | 12
CCN1CCCC1CNC(=O)c1cc(S(N)(=O)=O)ccc1OC (centres undefined) [SULPIRIDE] | 36
NC[C@H]1CC[C@H](C(=O)O)CC1 [TRANEXAMIC ACID] | 55
